The results in this text go back to patent US20100105770A1, “Therapeutic delivery of carbon monoxide” (priority 2006, published 2010).

The subject of series [1] is deoxymyoglobin (deoxy-Mb). The series can be described thus: Release of CO from metal carbonyl complexes (myoglobin assay / CO electrode). The class given is physicochemical. The protocol: The release of CO from metal carbonyl complexes was assessed spectrophotometrically by measuring the conversion of deoxymyoglobin (deoxy-Mb) to carbonmonoxymyoglobin (MbCO). MbCO has a distinctive absorption spectrum between 500 and 600 nm, and changes at 540 nm were used to quantify the amount of CO liberated. Myoglobin solutions were prepared freshly by dissolving a known concentration of the protein in phosphate buffer, which was also made up to a known concentration and pH. Sodium dithionite (0.1%) was added to convert myoglobin to deoxy-Mb prior to each reading. The CORM was dissolved in the solvent specified in the solubility column of the table of FIGS. 1a-1k, before addition to the myoglobin solution.
The release of CO from metal carbonyl complexes was also detected using a prototype electrode purchased from World Precision Instrument (Stevenage, Herts, UK). The CO electrode is a membrane-covered amperometric sensor which has been designed on a basic operating principle similar to the nitric oxide (NO) sensor. In fact, the CO sensor can be connected to the ISO-NO Mark II meter for detection of the current signals providing that the poise potential is set to a different value (900 mV for CO as opposed to 860 mV for NO). In principle, CO diffuses through the gas permeable membrane and is then oxidized to CO2 on the working electrode. This oxidation will create a current whose magnitude can be related directly to the concentration of CO in solution. The CO sensor was used to generate standard curves and calculate the rates of CO release from a CORM compound at different pHs and temperatures. The electrode was immersed into the solutions at different pHs and equilibrated for 30 min prior to addition of the CORM compound. The experiments were maintained at the desired temperature using a Grant W6 thermostat (Cambridge). This method is described in the applicants' earlier publication WO 2005/114161.
Slow release rates (half-life >200 minutes) are indicated for the comparative compounds, while rapid release rates (half-life <50 minutes) were found for compounds within the invention. […] Compounds having three carbonyl ligands released CO slowly, as did compounds in which a carbon or a nitrogen atom of the ligand bond to the manganese. Slow release is also found for the compound (CORM 325) having Mn—Mn bonding.

The nature of series [2]: Solubility information. The class given is physicochemical. The source says:
Uncharged complexes, such as CORM 378, can be made water soluble by the presence of suitable ligands.

Series [3] has as its system RAW264.7 macrophages. The series can be described thus: Anti-inflammatory action in LPS-stimulated RAW264.7 macrophages (nitrite, Griess method). The settings on record: 24 h, 10, 50 or 100 μM compound, LPS 1 μg/ml. The class given is cell-based, mouse. Here is the method:
(2) The anti-inflammatory action was measured in RAW264.7 macrophages incubated for 24 h with 10, 50 or 100 μM of each compound in the presence or absence of Lipopolysaccharide (LPS) (1 μg/ml). Nitrite was used as an indicator of inflammation. * indicates a reduction in inflammation detected at 100 μM; ** indicates a reduction in inflammation detected at 50 μM; *** indicates a reduction in inflammation detected at 10 μM; “None” indicates there was no effect of the compound on inflammation; N.P. indicates assay not performed.
Murine RAW264.7 monocyte macrophages were purchased from the European Collection of Cell Cultures (Salisbury, Wiltshire, UK) and cultured in Dulbecco's modified Eagle's medium (DMEM) supplemented' with 10% fetal bovine serum, 2 mM L-glutamine, 100 units ml^−1 penicillin and 0.1 mg ml^−1 streptomycin. […] Macrophages were exposed for 24 hr to LPS (1 μg ml^−) in the presence or absence of CORMs (10, 50 and 100 μM) and nitrite levels and cytotoxicity were determined at the end of the incubation. Nitrite levels were determined using the Griess method as previously described (Foresti et al. J. Biol. Chem. 272, 18411-18417, (1997)). […] The Griess reagent was added to each well to begin the reaction, the plate was shaken for 10 min and the absorbance read at 550 nm on a Molecular Devices VERSAmax plate reader. […]

Series [4] deals with isolated aortic rings. Put plainly: Vasorelaxation of pre-contracted isolated rat aortic rings. Also on record: species or system Sprague-Dawley rats. Conditions: for Contraction of pre-contracted aortic rings after addition of compound: varying concentrations, FIG. 3(a), 3(b). The protocol:
(3) The experiments using the isolated aortic rings were conducted to assess the extent of vasorelaxation. One hundred micromolar (100 μM) of each compound were added to a pre-contracted ring and vasorelaxation was assessed as a percentage of the initial contraction, which was expressed as good (+) or very good (++).
Vasodilatation data for CORM 371 and CORM 376 was measured as described previously by the inventors in their earlier publication, WO 2004/045599. This is described in more detail below.
The method for the preparation of isolated aortic rings has been previously described (Sammut et al Br J Pharmacol 125: 1437-1444, 1998; Motterlini et al Circ Res 90: E17-E24, 2002). The thoracic aorta was isolated from Sprague-Dawley rats (350-450 g) and flushed with cold Krebs-Henseleit buffer (4° C., pH 7.4) containing (in mM): 118 NaCl, 4.7 KCl, […], 1.2 MgSO4.7H2O, 22 NaHCO3, 11 Glucose, 0.03 K^+EDTA, 2.5 CaCl2 and supplemented with 10 μM indomethacin. Each aorta was trimmed of adventitial tissue and ring, sections (˜3 mm length) were produced from the mid aortic segment. The rings were then mounted between two stainless steel hooks in 9-mL organ baths containing Krebs-Henseleit buffer which was maintained at 37° C. and continuously gassed with 95% O2-5% CO2. One hook was attached to a Grass FT03 isometric force transducer whilst the other was anchored to a sledge for regulation of the resting tension of the aortic ring. The rings were initially equilibrated for 30 min under a resting tension of 2 g which was previously determined to be optimal. Continuous recording of tension was made on a Grass 7D polygraph (Grass Instruments, Quincy, Mass.) in combination with a Biopac MP100 system using AcqKnowledge™ software (Linton Instruments, Norfolk, UK). Before each protocol was carried out, rings were contracted with a standard dose of KCl (100 mM) in order to provide an internal reference and to control for variability in contractile responsiveness between tissues. The relaxation response to CORM-3 (25 μM) in the presence or absence of YC-1 (5 μM final concentration, 30 min pre-incubation) was assessed in aortic rings pre-contracted with phenylephrine (1 μmol/L).

For `O=[C]=[Mn]([Br])(=[C]=O)(=[C]=O)(=[C]=O)=[C]=O` [CORM 309, [MnBr(CO)5]], in series [1], the “CO release rate (in words)” value is listed as “much longer CO release times”.

In the case of `O=[C]=[Mn]([I])(=[C]=O)(=[C]=O)(=[C]=O)=[C]=O` [CORM 310, [MnI(CO)5]], the “CO release rate (in words)” value in series [1] is “much longer CO release times”.

On to `[C-]#[O+].[C-]#[O+].[C-]#[O+].[C-]#[O+].[C-]#[O+].[Cl][Mn]` [CORM 318, [MnCl(CO)5]], for which, in series [1], the “CO release rate (in words)” value is given as “much longer CO release times”.

`[C-]#[O+].[C-]#[O+].[C-]#[O+].[C-]#[O+].[C-]#[O+].[C-]#[O+].[C-]#[O+].[C-]#[O+].c1ccc([PH]([Mn][Mn][PH](c2ccccc2)(c2ccccc2)c2ccccc2)(c2ccccc2)c2ccccc2)cc1` [CORM 325, [Mn(CO)4(PPh3)]2]: in series [1], the “CO release rate (in words)” value is listed as “Slow release”.

With `OCCN(CCO)C(=S)[S-].[C-]#[O+].[C-]#[O+].[C-]#[O+].[C-]#[O+].[Mn+]` [CORM 378, Mn(CO)4(η^2-S2CN{CH2CH2OH}2)], the Solubility in water entry in series [2] is “water soluble”.

In the case of `C[N+](C)(C)C.O=C([O-])c1ccccc1.O=C([O-])c1ccccc1.O=C([O-])c1ccccc1.[C-]#[O+].[C-]#[O+].[C-]#[O+].[C-]#[O+].[C-]#[O+].[C-]#[O+].[Mn+].[Mn+]` [CORM 379, [Me4N][Mn2(CO)6(benzoate)3]], the “Anti-inflammatory action (nitrite as indicator of inflammation)” value in series [3] is given as “did not do so”. Moreover, the “CO release rate (in words)” value in series [1] is listed as “rapid CO release”.

`CC(=O)[S-].CC(=O)[S-].C[N+](C)(C)C.[C-]#[O+].[C-]#[O+].[C-]#[O+].[C-]#[O+].[Mn+]` [CORM-371, [Me4N][Mn(CO)4(thioacetate)2]]: in series [4], the “Vasodilator activity in the aortic rings model” value is reported as “good vasodilators” and the “Contraction of pre-contracted aortic rings after addition of compound” value is listed as “concentration-dependent decrease in contraction”.

“[K][(OC)3Mn(μ-OCOCH3)3Mn(CO)3] [CORM-376]”: in series [4], the “Vasodilator activity in the aortic rings model” value is reported as “good vasodilators” and the “Contraction of pre-contracted aortic rings after addition of compound” value is on record as “concentration-dependent decrease in contraction”. For the same compound, the “Dilatation in presence of glibenclimide (inhibition of ATP-dependent K+ channels)” value in series [4] (glibenclimide at two different concentrations, FIG. 3(c)) was “did not affect”. The “Vasorelaxation in presence of guanylate cyclase inhibitor ODQ” value in series [4] (with ODQ, FIG. 3(c)) was “significantly prevented”.

As for [Me4N][Mn(CO)4(Malonate)] [CORM 350], in series [3], the “Anti-inflammatory action (nitrite as indicator of inflammation)” value is “did not do so”. For the same compound, the “CO release rate (in words)” value in series [1] is listed as “rapid CO release”.
